Assay results taken from patent US11028051B2, “Tetrahydroquinoline-based bromodomain inhibitors” (St. Jude Children's Research Hospital, priority 2016, dated 2021).

How the values were obtained:
[1] = tested on: c-Myc oncogene expression; conditions: previous study with BD2-selective BET inhibitor; cited from earlier work
HDMB03 cells = experiment: cell viability, CellTiter-Glo; format: cell-based, human; conditions: Homo sapiens, HD-MB03, Table 5; read-out: EC50 (μM) HDMB03
Description: Human G3 medulloblastoma or mouse SHH medulloblastoma cells were grown as neurospheres in supplemented neurobasal medium, as previously described (Kawauchi et al., 2012.)
(§1) After 7 days of treatment, an equal volume of CellTiter-Glo reagent (G7572, Promega) was added and the luminescence signal was measured using an automated Envision plate reader (Perkin-Elmer). Luminescence data were normalized by log10 transformation prior to calculating the percent inhibition using the following equation:
(§2) 100*(negative control mean −compound value)/(negative control mean −positive control mean).
High-throughput assay data were analyzed using Robust Interpretation of Screening Experiments (RISE) application written in Pipeline Pilot (Accelrys, v. 8.5) and the R program (R Development Core Team).
Dose-response curves were calculated by regressing the median percent inhibition obtained over triplicate experiments to log 10-transformed concentrations. Non-linear regression was then performed using the R drc package with the four parameter log-logistic function (LL2.4) (Ritz and Streibig, 2009). Curves were fit under three different constraints: (1) all parameters free, (2) high response fixed to 100, (3) low response fixed to 0; and the best fit from these three nested models was selected using the anova.drc function.

[2] = tested on: c-Myc expression in HDMB03 cells; experiment: c-Myc expression inhibition, high content microscopy (HCM); format: cell-based, human; conditions: Homo sapiens, HD-MB03, Table 5; read-out: EC50 (μM) Myc-inhibition
BRD4-BD2 = BRD4-BD2 (Homo sapiens (Human), UniProt O60885); experiment: competitive TR-FRET assay, BET-BD with acetylated peptide ligand; format: binding; conditions: for 4(1)/4(2): Table 4, ratio of EC50; for EC50: Table 4, read-out: EC50 (μM) BRD4(2)
Description: (§3) Inhibitor potency was determined using a competitive TR-FRET assay as detailed herein, measuring interaction of the respective BET-BD with an acetylated peptide ligand (Table 2).

BRD4-BD1 = BRD4-BD1 (Homo sapiens (Human), UniProt O60885); experiment: as above; format: binding; conditions: Table 4; read-out: EC50 (μM) BRD4(1)
Description: as §3

BRD2-BD2 = BRD2-BD2 (Homo sapiens (Human), UniProt P25440); experiment: as above; format: binding; conditions: for [2(1)/2(2)]: Table 4, ratio of EC50; for EC50: Table 4, read-out: EC50 (μM) BRD2(2)
Description: as §3

BRD3-BD1 = BRD3-BD1 (Homo sapiens (Human), UniProt Q15059); experiment: as above; format: binding; conditions: Table 4; read-out: BRD3(1)
Description: as §3

BRD2-BD1 = BRD2-BD1 (Homo sapiens (Human), UniProt P25440); experiment: as above; format: binding; conditions: Table 4; read-out: EC50 (μM) BRD2(1)
Description: as §3

BRDT = BRDT (Homo sapiens, UniProt Q58F21); experiment: as above; format: binding; conditions: Table 4; read-out: BRDT EC50
Description: as §3

NALM-16 = experiment: anti-proliferative activity; format: cell-based; conditions: NALM16; Table 5
Description: as §1, §2

BRD3(1) = BRD3(1) (Homo sapiens (Human), UniProt Q15059); experiment: BROMOscan KD determination; format: binding; conditions: Table 10
Source text: (§4) DiscoverX® can screen compounds against all ˜42 bromodomains (a service called BROMOscan) and perform follow-up KD determination. This service is considered the industrial standard for bromodomain inhibitor comparisons.

BRD4(1) = BRD4(1) (Homo sapiens (Human), UniProt O60885); experiment: BROMOscan KD determination; format: binding; conditions: Table 10
Source text: as §4

BRD4(2) = BRD4(2) (Homo sapiens (Human), UniProt O60885); experiment: BROMOscan KD determination; format: binding
Source text: as §4

BRD3(2) = BRD3(2) (Homo sapiens (Human), UniProt Q15059); experiment: BROMOscan KD determination; format: binding
Source text: as §4

BRDT(2) = BRDT(2) (Homo sapiens (Human), UniProt Q58F21); experiment: BROMOscan KD determination; format: binding
Source text: (§5) DiscoverX® can screen compounds against all ˜42 bromodomains (a service called BROMOscan) and perform follow-up KD determination. This service is considered the industrial standard for bromodomain inhibitor comparisons. […] Dots are symbolic of inhibition of the compound at this concentration; the larger the size of the dot, the greater the activity of the compound. […] Though these compounds are selective for the BET family, the selectivity within the BET family is poor. The results of a competitive binding experiment between compounds 19 (left), 41 (center), and 56 (right) (at a single concentration, 1 μM) and a control for each of the bromodomains are shown in FIG. 5.

BRDT(1) = BRDT(1) (Homo sapiens (Human), UniProt Q58F21); experiment: BROMOscan KD determination; format: binding; conditions: Table 10
Source text: as §5

BRD2(2) = BRD2(2) (Homo sapiens (Human), UniProt P25440); experiment: BROMOscan KD determination; format: binding
Source text: as §5

BRD2(1) = BRD2(1) (Homo sapiens (Human), UniProt P25440); experiment: BROMOscan KD determination; format: binding; conditions: Table 10
Source text: as §5

SEM cells = experiment: anti-proliferative activity; format: cell-based; conditions: Table 5
Description: as §1, §2

[3] = tested on: neural crest tumor cell lines; experiment: activity versus neural crest tumor cell lines; format: cell-based; conditions: several neural crest tumor cell lines; read-out: IC50 ranges
Loucy = experiment: anti-proliferative activity; format: cell-based; conditions: Table 5
Description: as §1, §2

Chain of BRD2-BD1 (P25440 74-180): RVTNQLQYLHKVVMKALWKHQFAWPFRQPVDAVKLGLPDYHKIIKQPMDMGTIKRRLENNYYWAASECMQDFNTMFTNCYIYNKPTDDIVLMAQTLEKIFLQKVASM
Chain of BRD2-BD2 (P25440 344-453): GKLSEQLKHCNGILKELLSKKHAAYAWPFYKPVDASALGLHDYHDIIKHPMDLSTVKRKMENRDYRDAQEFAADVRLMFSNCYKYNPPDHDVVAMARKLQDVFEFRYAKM
Chain of BRD3-BD1 (Q15059 34-140): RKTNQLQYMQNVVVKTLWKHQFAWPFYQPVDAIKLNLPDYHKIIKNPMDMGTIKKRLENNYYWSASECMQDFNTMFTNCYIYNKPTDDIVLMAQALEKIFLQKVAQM
Chain of BRD3(2) (Q15059 306-415): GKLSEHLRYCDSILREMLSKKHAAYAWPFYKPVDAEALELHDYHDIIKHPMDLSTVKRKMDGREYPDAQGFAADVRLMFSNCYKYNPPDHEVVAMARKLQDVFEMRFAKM
Chain of BRD2(2) (P25440 344-453): as the sequence (P25440 344-453) above
Chain of BRD2(1) (P25440 74-180): as the sequence (P25440 74-180) above
Chain of BRD3(1) (Q15059 34-140): as the sequence (Q15059 34-140) above

| SMILES | EC50 (HDMB03 cells) [µM] | EC50 [2] [µM] | 4(1)/4(2) (BRD4-BD2) | EC50 (BRD4-BD2) [µM] | EC50 (BRD4-BD1) [µM] | [2(1)/2(2)] (BRD2-BD2) | EC50 (BRD2-BD2) [µM] | EC50 (BRD3-BD1) [nM] | EC50 (BRD2-BD1) [µM] | EC50 (BRDT) [nM] | EC50 (NALM-16) [µM] | EC50 (SEM cells) [µM] | further results |
| --- | --- | --- | --- | --- | --- | --- | --- | --- | --- | --- | --- | --- | --- |
| COc1cc(OC)c2c(=O)[nH]c(-c3cc(C)c(OCCO)c(C)c3)nc2c1 [RVX-208] | – | – | – | – | – | – | – | – | – | – | – | – | c-Myc oncogene expression [1]: did not inhibit c-Myc oncogene expression |
| CC(=O)Nc1cccc(-c2ccc3c(c2)[C@H](Nc2ccc(Cl)cc2)C[C@H](C)N3C(C)=O)c1 [compound 10] | 1.18 | 0.68 | 15 | 0.21 | 3.1 | 33 | 0.08 | 1900 | 2.6 | 3700 | 0.33 | – | – |
| CC(=O)Nc1cccc(-c2ccc3c(c2)[C@H](Nc2ccccc2OC(F)(F)F)C[C@H](C)N3C(C)=O)c1 [compound 19] | 1.14 | 0.11 | 59 | 0.14 | 8.3 | 52 | 0.16 | 5400 | 8.3 | 10000 | > 1.7 | 0.04 | Kd (BRD3(1)): 110 nM; Kd (BRD4(1)): 99 nM; 4(1)/4(2) (BRD4(2); BROMOscan KD ratio): 58.2; Kd (BRD4(2); BROMOscan, Table 10): 1.7 nM; 3(1)/3(2) (BRD3(2); BROMOscan KD ratio): 84.6; Kd (BRD3(2); BROMOscan, Table 10): 1.3 nM; T(1)/T(2) (BRDT(2); BROMOscan KD ratio): 6.5; Kd (BRDT(2); BROMOscan, Table 10): 11 nM; Kd (BRDT(1)): 72 nM; [2(1)/2(2)] (BRD2(2); BROMOscan KD ratio): 48.6; Kd (BRD2(2); BROMOscan, Table 10): 3.5 nM; Kd (BRD2(1)): 170 nM |
| COc1ccccc1N[C@@H]1C[C@H](C)N(C(C)=O)c2ccc(-c3cccc(NC(C)=O)c3)cc21 [compound 40] | 17.6 | 0.49 | 52.9 | 0.1 | 6 | 75 | 0.06 | 2000 | 4.2 | 9100 | 0.26 | 0.02 | IC50 [3]: 50 to 200 nM; EC50 (Loucy): 0.32 µM |
